row,SMILES,logP
1,c1cc2ccc3cccc4sc(c1)c2c34,4.95
2,c1ccc2c(c1)ccc1sccc12,4.41
3,Cc1cccc2sccc12,3.57
4,c1ccc2c(c1)ccc1c3ccsc3ccc21,5.35
5,Cc1cccc2ccsc12,3.85
6,c1ccc2c(c1)ccc1sc3ccccc3c12,5.19

# The remaining lines, values ahead:
row,logP,SMILES
1,4.5,c1ccc2cc3sccc3cc2c1
2,1.01,O=S1C=Cc2ccccc21 (stereo not given)
3,4.55,c1ccc2c(c1)ccc1ccsc12
4,3.71,Cc1cc2ccccc2s1

# Source: the OPERA property sets (Mansouri et al. 2018)
